What is called IC50 is the concentration needed to halve the response being measured. A high value points to a need for much substance.

human VPS34, sequence (Q8NEB9 whole entry): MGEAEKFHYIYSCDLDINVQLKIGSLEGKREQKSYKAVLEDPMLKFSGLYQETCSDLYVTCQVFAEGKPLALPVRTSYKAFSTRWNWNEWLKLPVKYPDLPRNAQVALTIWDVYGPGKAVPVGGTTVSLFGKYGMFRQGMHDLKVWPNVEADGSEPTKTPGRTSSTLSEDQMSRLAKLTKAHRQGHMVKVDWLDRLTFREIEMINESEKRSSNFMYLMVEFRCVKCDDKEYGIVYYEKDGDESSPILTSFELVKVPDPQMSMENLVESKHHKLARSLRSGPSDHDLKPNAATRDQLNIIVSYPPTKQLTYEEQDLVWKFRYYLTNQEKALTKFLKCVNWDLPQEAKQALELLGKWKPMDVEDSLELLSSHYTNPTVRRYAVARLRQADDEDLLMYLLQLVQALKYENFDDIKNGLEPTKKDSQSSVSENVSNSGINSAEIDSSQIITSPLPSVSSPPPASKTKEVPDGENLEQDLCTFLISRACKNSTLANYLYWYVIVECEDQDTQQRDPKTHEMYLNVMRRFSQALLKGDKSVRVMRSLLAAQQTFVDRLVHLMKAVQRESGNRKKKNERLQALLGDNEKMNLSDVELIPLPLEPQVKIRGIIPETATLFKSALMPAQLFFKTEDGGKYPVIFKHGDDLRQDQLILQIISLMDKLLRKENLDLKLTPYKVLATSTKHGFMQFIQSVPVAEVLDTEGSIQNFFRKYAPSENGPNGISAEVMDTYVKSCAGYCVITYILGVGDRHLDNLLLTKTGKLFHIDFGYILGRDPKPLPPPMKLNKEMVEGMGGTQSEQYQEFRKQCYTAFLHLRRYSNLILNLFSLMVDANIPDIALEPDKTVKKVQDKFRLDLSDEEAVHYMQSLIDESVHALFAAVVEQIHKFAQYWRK

This experiment addresses human VPS34 (Homo sapiens (Human), UniProt Q8NEB9). The experiment is described as follows: Human VPS34 enzyme assay (Adapta TR-FRET ADP detection). Type of experiment: biochemical. The note with it: IC50 range class.
Compound `CC(=O)Nc1cc(-c2cnc(Cl)c(NS(=O)(=O)c3ccccc3F)c2C)ccn1` [Compound I-251, N-(6-chloro-5-{[(2-fluorophenyl)sulfonyl]amino}-4-methyl-3,4′-bipyridin-2′-yl)acetamide] displayed an IC50 of 10 to 50 nM. The compound `CC(=O)Nc1cc(-c2cnc3c(c2)S(=O)(=O)N(C)CN3)ccn1` [Compound I-21, N-[4-(2-methyl-1,1-dioxido-3,4-dihydro-2H-pyrido[2,3-e][1,2,4]thiadiazin-7-yl)pyridin-2-yl]acetamide] displayed an IC50 of 10 to 50 nM.

`COc1ncc(-c2ccnc(NC(C)=O)c2)cc1S(=O)(=O)Nc1cc(Cl)ccc1Cl` [Compound I-432, N-{5-[(2,5-dichlorophenyl)sulfamoyl]-6-methoxy-3,4′-bipyridin-2′-yl}acetamide]: the IC50 lay in the range of 10 to 50 nM.

In turn, `Cc1nccc(Nc2cc(-c3cnc(Cl)c(N)c3C)ccn2)n1` [Compound I-226, 6-chloro-4-methyl-N-2′-(2-methylpyrimidin-4-yl)-3,4′-bipyridine-2′,5-diamine] registered an IC50 of 10 to 50 nM. As for `COC(=O)Nc1cc(-c2cnc(C)c(NS(=O)(=O)c3ccc(Cl)cc3F)c2)ccn1` [Compound I-417, methyl (5-{[(4-chloro-2-fluorophenyl)sulfonyl]amino}-6-methyl-3,4′-bipyridin-2′-yl)carbamate], the IC50 was < 10 nM. `Cc1nccc(Nc2cc(-c3cncc(C(=O)N4CC(F)(F)C4)c3)ccn2)n1` [Compound I-408, (3,3-difluoroazetidin-1-yl){2′-[(2-methylpyrimidin-4-yl)amino]-3,4′-bipyridin-5-yl}methanone] had a 50% inhibitory concentration (IC50) of 10 to 50 nM. `CC(=O)Nc1cc(-c2cncc(S(=O)(=O)NC34CC5CC(CC(C5)C3)C4)c2)ccn1` [Compound I-468, N-[5-(adamantan-1-ylsulfamoyl)-3,4′-bipyridin-2′-yl]acetamide] displayed a half-maximal inhibitory concentration (IC50) of 10 to 50 nM.

As to `Cc1cnc(NC(=O)C2CC2)cc1-c1cnc(Cl)c(NS(=O)(=O)c2ccc(F)cc2F)c1C` [Compound I-430, N-(6-chloro-5-{[(2,4-difluorophenyl)sulfonyl]amino}-4,5′-dimethyl-3,4′-bipyridin-2′-yl)cyclopropanecarboxamide], the IC50 lay in the range of 10 to 50 nM.

With `CC(=O)Nc1cc(-c2cnc(C)c(N(C)S(C)(=O)=O)c2)ccn1` [Compound I-96, N-{6-methyl-5-[methyl(methylsulfonyl)amino]-3,4′-bipyridin-2′-yl}acetamide], the half-inhibitory concentration (IC50) was 10 to 50 nM.

Turning to `CC(=O)Nc1cc(-c2cncc(N3CCOc4cc(F)ccc4S3(=O)=O)c2)ccn1` [Compound I-405], the IC50 lay in the range of 10 to 50 nM. Then `CC(=O)Nc1cc(-c2cnc(C)c(NS(=O)(=O)c3ccc(F)cc3F)c2)cc[n+]1[O-]` [Compound I-219, N-[4-(5-{[(2,4-difluorophenyl)sulfonyl]amino}-6-methylpyridin-3-yl)-1-oxidopyridin-2-yl]acetamide], with 50 to 100 nM; and `Cc1ncc(-c2ccnc(Nc3cnccn3)c2)cc1NS(=O)(=O)c1ccc(F)cc1F` [Compound I-310, 2,4-difluoro-N-[6-methyl-2′-(pyrazin-2-ylamino)-3,4′-bipyridin-5-yl]benzenesulfonamide], with < 10 nM.

As for `CC(=O)Nc1cc(-c2cnc(C)c(NS(=O)(=O)c3ccccc3C)c2)ccn1` [Compound I-211, N-(6-methyl-5-{[(2-methylphenyl)sulfonyl]amino}-3,4′-bipyridin-2′-yl)acetamide], the IC50 was < 10 nM.

In turn, `CC(=O)Nc1cc(-c2cnc(C)c(NS(=O)(=O)c3cc(Cl)sc3Cl)c2)ccn1` [Compound I-465, N-[5-{[(2,5-dichloro-3-thienyl)sulfonyl]amino}-6-methyl-3,4′-bipyridin-2′-yl)acetamide] gave an IC50 of 10 to 50 nM. Under `CC(=O)Nc1cc(-c2cncc(S(=O)(=O)N3CCC3)c2)ccn1` [Compound I-474, N-[5-(azetidin-1-ylsulfonyl)-3,4′-bipyridin-2′-yl]acetamide] stands 10 to 50 nM.

Values taken from patent publication US9751854B2 (Millennium Pharmaceuticals, Inc., priority 2014, dated 2017).
